Test results taken from publication PMC10253591, “A Non-Systemic Phosphodiesterase-5 Inhibitor Suppresses Colon Proliferation in Mice” (International Journal of Molecular Sciences, 2023).

Columns and labels:
mice [1] = test: Arterial blood pressure by telemetry, interaction with isosorbide mononitrate; type: in vivo; conditions: ISMN 300 mg/kg i.p. alone (oral vehicle), baseline around 100 mmHg
Method: Male C57BL/6J mice (n = 4) were implanted with a PA-C10 blood pressure transmitter in the right carotid artery (Data Sciences International, St. Paul, MN, USA), and after recovery from surgery, the data was recorded using the DSI PhysioTel system (Data Sciences International, St. Paul, MN, USA). For each experiment, the mice were randomly selected for treatment with ISMN mixed in diH20, and 0.1 mL was injected i.p. for a final dose of 300 mg/kg. […] The experiment was repeated until each treatment had been reproduced in 5 independent biological trials after which mice were euthanized.
The surgical procedures and implantable telemetry approach for measuring blood pressure in mice have been described in detail previously. In brief, all surgical instruments were autoclaved on a stainless-steel tray that was used as the sterile surface during surgery. The mouse is anesthetized in an isoflurane-inducing chamber. Anesthesia used a fitted nose cone connected to an isoflurane system running 2% in a stream of 100% oxygen mixed with room air. The incision area was shaved and prepped with betadine and rinsed with 70% ethanol. Anesthesia was assessed continuously during shaving and prepping for surgery, with appropriate adjustments. An approximately 10 mm incision was made in the ventral neck region over the trachea to expose the […]. […]

colon epithelium = test: Cell proliferation in the colon epithelium (Ki67 flow cytometry, PCNA IHC); type: in vivo; conditions: mice, 9 mg/kg in drinking water; for Ki67+ cells, median: 8 days, proximal colon epithelium, flow cytometry, control 23%; for reduction of number of PCNA+ cells/crypt: distal colon, IHC
Source text: Mice were weighed daily, and after at least 5 days of continuous consumption they were sacrificed, and the colon was dissected and processed for quantitation of proliferation by flow cytometry (proximal region) and by IHC (distal region). For flow cytometry, the epithelium was enriched by isolating crypts as described previously, followed by ethanol fixation and staining with phycoerythrin-conjugated anti-mouse Ki-67 antibodies according to the manufacturer instructions (Biolegend, San Diego, CA, USA). Flow cytometry was carried out using a BD Accuri C6 flow cytometer, and data were analyzed using FCS Express 7 software (De Novo Software, Pasadena, CA, USA). Processing the distal colon tissues for histology and immunohistochemistry was carried out as previously described. Briefly, tissues were fixed with 10% formaldehyde, embedded in paraffin blocks, and sectioned by the Augusta University histology core. The tissues were probed using antibodies to PCNA (1:100; Cell Signaling, Danvers, MA, USA). Visualization of PCNA antibodies was carried out using the ImmunoCruz ABC kit (Santa Cruz Biotechnology, Dallas, TX, USA). At least 10 different regions of the colon containing approximately 8 crypts per region were counted for each mouse.

[2] = system: LS-174T colon cancer cells; test: Cell-based permeability assay: cellular cGMP (ELISA) in linaclotide-treated cells; conditions: LS-174T cells; for EC50: Homo sapiens, LS174T, 1 µM linaclotide, 4 h, cGMP ELISA, read-out: EC50 for increasing cellular cGMP levels
Method: The cell-based permeability assays were performed using LS-174T colon cancer cells obtained from the American Type Culture Collection. Cells were treated with 1 µM linaclotide together with different PDE5i concentrations for 4 h, followed by processing of cell extracts for cellular cGMP measurement using cGMP ELISA kits according to the manufacturer instructions (Cayman Chemical, Ann Arbor, MI, USA). The calculated EC50 values are the concentration of compound required to increase cellular cGMP levels by 50% of maximum based on predictions determined by curve fitting in GraphPad Prism 9 (San Diego, CA, USA). To assess activation of cGMP signaling by immunoblotting, we used LS174T cells with inducible PKG2 expression that were described recently.

mice [3] = test: Tolerability and plasma level with compound in drinking water for up to 8 days; type: in vivo
human PDE5a = molecular target: T1, human PDE5a (Homo sapiens, UniProt O76074); test: In vitro assay for PDE5 inhibitory activity (commercial kit); type: biochemical; conditions: mean of n = 3
T1 construct: purchased BPS Bioscience

[4] = LC-MS/MS measurement of compound in plasma and feces after oral gavage; conditions: mice; for level in feces: feces collected between 2–4 h
in vivo = conditions: both, mouse, po
[5] = both, mouse, in vivo, po
[6] = Tolerability and plasma level with compound in drinking water for up to 8 days; type: in vivo; conditions: male, mouse, plasma, oral, 9 mg/kg daily; mice, in drinking water for 8 days
[7] = 9 mg/kg in drinking water, up to 8 days

SMILES: O=[N+]([O-])O[C@@H]1CO[C@H]2[C@@H]1OC[C@@H]2O [ISMN, isosorbide mononitrate]
- arterial blood pressure after drug (mice [1]): 126 mmHg

SMILES: CCCc1nn(C)c2c(=O)[nH]c(-c3cc(S(=O)(=O)N4CCN(C(=O)CC(=O)O)CC4)ccc3OCC)nc12 [malonyl-sildenafil]
- Ki67+ cells, median (colon epithelium): 7%
- reduction of number of PCNA+ cells/crypt (colon epithelium): about 30%
- EC50 [2]: 12100 nM
- fold less potent than parent compound at increasing cGMP levels, based upon EC50 ([2]; versus sildenafil): 18 fold
- body weight compared to sildenafil or water alone (mice [3]; [7]): no difference
- observed deleterious effects (mice [3]; [7]): no observed deleterious effects
- histological analysis of the colon mucosa (mice [3]; 8 days in drinking water, H&E): no obvious epithelial damage, edema or leukocyte infiltration
- level in plasma (mice [3]; in drinking water for 8 days): not detected
- IC50 (human PDE5a): 6.5 nM
- level in feces ([4]; oral 9 mg/kg): 90 µg/g
- level in feces ([4]; oral 36 mg/kg): 244 µg/g
- level in plasma ([4]; oral, doses up to 36 mg/kg, 1 h after administration): did not result in detectable levels
- excretion in feces ([4]; single oral 9 mg/kg, 8 h after administration): continued to be excreted at high levels
- level in plasma at other times of time course ([4]; single oral 9 mg/kg, any time other than 1 h during 24 h): not detected
- plasma peak in time course ([4]; single oral 9 mg/kg, at 1 h): 11 nM

SMILES: CCCc1nn(C)c2c(=O)[nH]c(-c3cc(S(=O)(=O)N4CCN(C)CC4)ccc3OCC)nc12 [sildenafil, reference compound]
- concentration at 1 h (in vivo; 9 mg/kg): 250 nM
- concentration at 1 h (in vivo; 36 mg/kg): 3500 nM
- Ki67+ cells, median (colon epithelium): 11%
- reduction of number of PCNA+ cells/crypt (colon epithelium): about 30%
- time of peak in plasma [5]: 1 to 2 h
- EC50 [2]: 670 nM
- concentration at 8 days [6]: 3.3 nM
